Test results taken from patent US11970474B2, “Substituted benzodiazoles and use thereof in therapy” (THOMAS HELLEDAYS STIFTELSE FÖR MEDICINSK FORSKNING, priority 2018, dated 2024).

Columns and labels:
MLE12 cells = experiment: Cell viability assay in MLE12 cells (resazurin); type: cell-based, mouse; details: Mus musculus, MLE12, 24 h, TNF-α 20 ng/ml, resazurin added after 24 hours culture
Summary of the method: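 MLE12 cells (7500 cells/well) were seeded onto 11-point duplicate compound dose-responses, with TNF-α (final 20 ng/ml) added after 1 hour at 37° C. After 24 hours, resazurin was added for 6 hours and resorufin fluorescence read (ex544 nm/em595 nm). EC50 values were calculated by curve fitting.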

H460 = experiment: Colony formation survival assay; type: cell-based; details: cancer cell line H460; 7-11 days
Experimental: (§1) Example compounds or vehicle are transferred to 6-well plates. Cell lines to be tested are seeded at a density of 200-500 cells/well in suitable media and allowed to grow for 7-11 days in at 5% CO2, 37° C. The medium is removed and replaced with 4% w/v methylene blue in methanol. Following extensive washes in tap water and air drying, […] with more than 50 […] are counted, as described in Franken, Nicolaas A. P., et al., Nature Protocols, 1(5), 2315-19 (2006).

ACHN = experiment: Colony formation survival assay; type: cell-based; details: cancer cell line ACHN; 7-11 days
Experimental: as §1

MEF Ogg1 (−/−) = experiment: Cell viability assay (resazurin); type: cell-based; details: 120 h, Normal, mouse embryonic fibroblast, five day incubation
Experimental: A dilution series of compound or vehicle are transferred to 96-well plates. Cells are seeded into the plate (500-10,000 cells/well) in suitable media and incubated for five days in 5% CO2 at 37° C.
The compounds to be tested are nano-dispensed in duplicate in 11 concentrations, directly in 384-well cell plates, with a final DMSO concentration<1%.

NB-4 = experiment: Cell viability assay (resazurin); type: cell-based; details: Homo sapiens, 120 h, Cancer, acute promyelocytic leukemia, five day incubation
Experimental: (§2) A dilution series of compound or vehicle are transferred to 96-well plates. Cells are seeded into the plate (500-10,000 cells/well) in suitable media and incubated for five days in 5% CO2 at 37° C. Thereafter, resazurin (diluted in suitable medium or PBS) are added to a final concentration 10 μg/ml resazurin at 37° C. for 2-4 hours before measuring the fluorescence (Ex544/Em590), essentially as described (Riss, Terry L. et al., “Cell Viability Assays.” In Assay Guidance Manual, ed. G. Sitta Sittampalam, et al. Bethesda (Md.): Eli Lilly & Company and the National Center for Advancing Translational Sciences (2004) http://www.ncbi.nlm.nih.gov/books/NBK144065/).
(§3) The compounds to be tested are nano-dispensed in duplicate in 11 concentrations, directly in 384-well cell plates, with a final DMSO concentration<1%. Cells are seeded in cell plates, pre-dispensed with compounds (200-2500 cells/well in 50 μl). After three or five days culture in 5% CO2, 37° C., resazurin diluted in PBS is added, 10 μl/well, to a final concentration of 10 μg/ml and cells are incubated 2-4 hours before measuring fluorescence (Ex544/Em590), as described (ibid.). Results obtained for selected example compounds described herein on cancer- and non-transformed cell lines are provided in the table below (Table 3) and summarized in FIG. 1. Where indicated, combination indexes was measured with CompuSyn software (www.compusyn.com) by the method of Chou-Talalay (Chou, Ting-Chao., Cancer Research, 70(2), 440-46 (2010)).

Hec59 + Chr2 = experiment: Cell viability assay (resazurin); type: cell-based; details: 120 h, Cancer, endometrioid adenocarcinoma, five day incubation
Experimental: as §2, §3

SW1271 = experiment: Cell viability assay (resazurin); type: cell-based; details: 120 h, Cancer, Small Cell Lung Carcinoma, five day incubation
Experimental: as §2, §3

Hec59 = experiment: Cell viability assay (resazurin); type: cell-based; details: 120 h, Cancer, endometrioid adenocarcinoma, five day incubation
Experimental: as §2, §3

THP1 = experiment: Cell viability assay (resazurin); type: cell-based; details: Homo sapiens, THP-1, 120 h, Cancer, Acute Monocytic Leukemia, five day incubation
Experimental: as §2, §3

K562 = experiment: Cell viability assay (resazurin); type: cell-based; details: Homo sapiens, 120 h, Cancer, Chronic Myelogenous Leukemia, five day incubation
Experimental: as §2, §3

MLE-12 cells = experiment: Pro-inflammatory gene regulation induced by TNFα; type: cell-based, mouse; details: 20 ng/ml TNFα, 5 μM compound
Experimental: MLE-12 cells are maintained in suitable medium and treated with vehicle or 5 μM experimental compound for 48 h before stimulation with 20 ng/ml TNFα for 30 minutes. RNA is extracted and reverse-transcribed, followed by quantitative PCR evaluation of a panel of pro-inflammatory regulators (SABiosciences) essentially as described in Ba, Xueqing, et al., The Journal of Immunology, 192(5), 2384-94 (2014).

BALB/c mice = experiment: Recruitment of neutrophils to mouse airways; type: in vivo; details: 25 mg/kg intraperitoneally; intranasal TNFα or lipopolysaccharide; lungs lavaged after 16 h
Experimental: Six- to 8-wk-old BALB/c mice (˜20 g; Harlan Sprague Dawley, San Diego, CA) were injected 25 mg/kg intraperitoneally 3 h before and at the time of intranasal TNF-α challenge essentially as described in Ba, Xueqing, et al., The Journal of Immunology, 192(5), 2384-94 (2014). To evaluate inflammation, bronchoalveolar lavage fluids (BALF) were collected 16 h after challenge, processed, cytospin slides were stained with Wright-Giemsa, and the number of neutrophils was counted. All experiments were performed according to the National Institutes of Health Guidelines for the Care and Use of Laboratory Animals.

Row | SMILES | IC50 (MLE12 cells) | colony formation (H460) | colony formation (ACHN) | EC50 (MEF Ogg1 (−/−)) | EC50 (NB-4) | EC50 (Hec59 + Chr2) | EC50 (SW1271) | EC50 (Hec59) | EC50 (THP1) | EC50 (K562) | pro-inflammatory gene regulation induced by the cytokine TNFα (MLE-12 cells) | recruitment of neutrophils to mouse airways (BALB/c mice)
1 | O=C(Nc1ccc(I)cc1)N1CCC(n2c(=O)[nH]c3c(Br)cccc32)CC1 [Example 13, 4-(4-Bromo-2-oxo-2,3-dihydro-1H-1,3-benzodiazol-1-yl)-N-(4-iodophenyl)piperidine-1-carboxamide] | 7.67 µM | inhibits colony formation | inhibits colony formation | 48 µM | 5 µM | 16 µM | 22 µM | 17 µM | 23 µM | 20 µM | reduces pro-inflammatory gene regulation | reduces recruitment of neutrophils
2 | Cc1cc(NC(=O)N2CCC(n3c(=O)[nH]c4c(Br)cccc43)CC2)ccc1I [Example 50, 4-(4-Bromo-2-oxo-2,3-dihydro-1H-1,3-benzodiazol-1-yl)-N-(4-iodo-3-methylphenyl)piperidine-1-carboxamide] | 7.23 µM | – | – | 34 µM | – | – | – | – | – | – | – | –
3 | O=C(Nc1ccc(Cl)c(Cl)c1)N1CCC(n2c(=O)[nH]c3c(-c4ccc(CO)nc4)cccc32)CC1 [Example 28, N-(3,4-dichlorophenyl)-4-{4-[6-(hydroxymethyl)pyridin-3-yl]-2-oxo-2,3-dihydro-1H-1,3-benzodiazol-1-yl}piperidine-1-carboxamide] | 7.18 µM | – | – | 46 µM | 11 µM | 17 µM | 25 µM | 11 µM | 19 µM | 21 µM | – | –
